Measurements reported in ChEMBL document CHEMBL5724806, “Unraveling interindividual differences and functional consequences of gut microbial metabolism of immunosuppressants” (2024).

Assays:
Type in all cases: ADME
[1] = (§1) The drug is tested on the gut metagenome community of P-03 with ENA study accession number: PRJEB31790 for biotransformation under anaerobic condition. The drug concentrations were measured over 7 timepoints collected between 0 and 12 hours of incubation by liquid-chromatography-coupled mass spectrometry (LC–MS); parameters: dose 5 uM, timepoint 0, 0.75, 1.5, 3, 6, 9, 12 hours; details: 5 µM
[2] = as §1, with “A-06” for “P-03”; parameters: dose 5 uM, timepoint 0, 0.75, 1.5, 3, 6, 9, 12 hours; details: 5 µM
[3] = The drug is tested on Streptococcus sanguinis strain: DSM20567 for biotransformation under microaerobic condition. The drug concentrations were measured over 6 timepoints collected between 0 and 12 hours of incubation by liquid-chromatography-coupled mass spectrometry (LC–MS); parameters: dose 5 uM, timepoint 0, 1.5, 3, 6, 9, 12 hours; details: 5 µM
[4] = The drug is tested on Lactobacillus fermentum strain: DSM20052 for biotransformation under microaerobic condition. The drug concentrations were measured over 6 timepoints collected between 0 and 12 hours of incubation by liquid-chromatography-coupled mass spectrometry (LC–MS); parameters: dose 5 uM, timepoint 0, 1.5, 3, 6, 9, 12 hours; details: limosilactobacillus fermentum, 5 µM
[5] = as §1, with “T-02” for “P-03”; parameters: dose 5 uM, timepoint 0, 0.75, 1.5, 3, 6, 9, 12 hours; details: 5 µM
[6] = as §1, with “A-02” for “P-03”, “microaerobic” for “anaerobic”; parameters: dose 5 uM, timepoint 0, 0.75, 1.5, 3, 6, 9, 12 hours; details: 5 µM
[7] = as §1, with “P-04” for “P-03”; parameters: dose 5 uM, timepoint 0, 0.75, 1.5, 3, 6, 9, 12 hours; details: 5 µM
[8] = The drug is tested on Gemella haemolysans strain: DSM107751 for biotransformation under microaerobic condition. The drug concentrations were measured over 6 timepoints collected between 0 and 12 hours of incubation by liquid-chromatography-coupled mass spectrometry (LC–MS); parameters: dose 5 uM, timepoint 0, 1.5, 3, 6, 9, 12 hours; details: 5 µM
[9] = as §1, with “T-01” for “P-03”, “microaerobic” for “anaerobic”; parameters: dose 5 uM, timepoint 0, 0.75, 1.5, 3, 6, 9, 12 hours; details: 5 µM
[10] = as §1, with “A-06” for “P-03”, “microaerobic” for “anaerobic”; parameters: dose 5 uM, timepoint 0, 0.75, 1.5, 3, 6, 9, 12 hours; details: 5 µM
[11] = The drug is tested on Bacteroides xylanisolvens strain: HM 722 for biotransformation under anaerobic condition. The drug concentrations were measured over 6 timepoints collected between 0 and 12 hours of incubation by liquid-chromatography-coupled mass spectrometry (LC–MS); parameters: dose 5 uM, timepoint 0, 1.5, 3, 6, 9, 12 hours; details: 5 µM
[12] = as §1, with “T-04” for “P-03”; parameters: dose 5 uM, timepoint 0, 0.75, 1.5, 3, 6, 9, 12 hours; details: 5 µM
[13] = The drug is tested on Eubacterium rectale strain: DSM17629 for biotransformation under anaerobic condition. The drug concentrations were measured over 6 timepoints collected between 0 and 12 hours of incubation by liquid-chromatography-coupled mass spectrometry (LC–MS); parameters: dose 5 uM, timepoint 0, 1.5, 3, 6, 9, 12 hours; details: agathobacter rectalis, 5 µM
[14] = The drug is tested on Gemella morbillorum strain: DSM20572 for biotransformation under anaerobic condition. The drug concentrations were measured over 6 timepoints collected between 0 and 12 hours of incubation by liquid-chromatography-coupled mass spectrometry (LC–MS); parameters: dose 5 uM, timepoint 0, 1.5, 3, 6, 9, 12 hours; details: 5 µM
[15] = The drug is tested on Streptococcus anginosus strain: DSM20563 for biotransformation under anaerobic condition. The drug concentrations were measured over 6 timepoints collected between 0 and 12 hours of incubation by liquid-chromatography-coupled mass spectrometry (LC–MS); parameters: dose 5 uM, timepoint 0, 1.5, 3, 6, 9, 12 hours; details: 5 µM
[16] = as §1, with “T-03” for “P-03”; parameters: dose 5 uM, timepoint 0, 0.75, 1.5, 3, 6, 9, 12 hours; details: 5 µM
[17] = as §1, with “A-01” for “P-03”, “microaerobic” for “anaerobic”; parameters: dose 5 uM, timepoint 0, 0.75, 1.5, 3, 6, 9, 12 hours; details: 5 µM
[18] = The drug is tested on Clostridium bolteae strain: DSM15670 for biotransformation under anaerobic condition. The drug concentrations were measured over 6 timepoints collected between 0 and 12 hours of incubation by liquid-chromatography-coupled mass spectrometry (LC–MS); parameters: dose 5 uM, timepoint 0, 1.5, 3, 6, 9, 12 hours; details: enterocloster bolteae, 5 µM
[19] = as §1, with “T-02” for “P-03”, “microaerobic” for “anaerobic”; parameters: dose 5 uM, timepoint 0, 0.75, 1.5, 3, 6, 9, 12 hours; details: 5 µM
[20] = The drug is tested on Bifidobacterium longum strain: DSM20088 for biotransformation under microaerobic condition. The drug concentrations were measured over 6 timepoints collected between 0 and 12 hours of incubation by liquid-chromatography-coupled mass spectrometry (LC–MS); parameters: dose 5 uM, timepoint 0, 1.5, 3, 6, 9, 12 hours; details: 5 µM
[21] = The drug is tested on Bifidobacterium adolescentis strain: DSM20083 for biotransformation under anaerobic condition. The drug concentrations were measured over 6 timepoints collected between 0 and 12 hours of incubation by liquid-chromatography-coupled mass spectrometry (LC–MS); parameters: dose 5 uM, timepoint 0, 1.5, 3, 6, 9, 12 hours; details: 5 µM
[22] = as §1, with “T-04” for “P-03”, “microaerobic” for “anaerobic”; parameters: dose 5 uM, timepoint 0, 0.75, 1.5, 3, 6, 9, 12 hours; details: 5 µM
[23] = The drug is tested on Odoribacter splanchnicus strain: DSM20712 for biotransformation under anaerobic condition. The drug concentrations were measured over 6 timepoints collected between 0 and 12 hours of incubation by liquid-chromatography-coupled mass spectrometry (LC–MS); parameters: dose 5 uM, timepoint 0, 1.5, 3, 6, 9, 12 hours; details: 5 µM
[24] = The drug is tested on Parabacteroides merdae strain: DSM19495 for biotransformation under anaerobic condition. The drug concentrations were measured over 6 timepoints collected between 0 and 12 hours of incubation by liquid-chromatography-coupled mass spectrometry (LC–MS); parameters: dose 5 uM, timepoint 0, 1.5, 3, 6, 9, 12 hours; details: 5 µM
[25] = as §1, with “A-03” for “P-03”, “microaerobic” for “anaerobic”; parameters: dose 5 uM, timepoint 0, 0.75, 1.5, 3, 6, 9, 12 hours; details: 5 µM
[26] = The drug is tested on Capnocytophaga ochracea strain: DSM7271 for biotransformation under anaerobic condition. The drug concentrations were measured over 6 timepoints collected between 0 and 12 hours of incubation by liquid-chromatography-coupled mass spectrometry (LC–MS); parameters: dose 5 uM, timepoint 0, 1.5, 3, 6, 9, 12 hours; details: 5 µM
[27] = The drug is tested on Actinomyces naeslundi strain: DSM43013 for biotransformation under anaerobic condition. The drug concentrations were measured over 6 timepoints collected between 0 and 12 hours of incubation by liquid-chromatography-coupled mass spectrometry (LC–MS); parameters: dose 5 uM, timepoint 0, 1.5, 3, 6, 9, 12 hours; details: actinomyces naeslundii, 5 µM
[28] = The drug is tested on Bacteroides vulgatus strain: DSM1447 for biotransformation under anaerobic condition. The drug concentrations were measured over 6 timepoints collected between 0 and 12 hours of incubation by liquid-chromatography-coupled mass spectrometry (LC–MS); parameters: dose 5 uM, timepoint 0, 1.5, 3, 6, 9, 12 hours; details: phocaeicola vulgatus, 5 µM
[29] = The drug is tested on Bacteroides ovatus strain: ATCC 8483 for biotransformation under anaerobic condition. The drug concentrations were measured over 6 timepoints collected between 0 and 12 hours of incubation by liquid-chromatography-coupled mass spectrometry (LC–MS); parameters: dose 5 uM, timepoint 0, 1.5, 3, 6, 9, 12 hours; details: 5 µM
[30] = The drug is tested on Actinomyces naeslundi strain: DSM43013 for biotransformation under microaerobic condition. The drug concentrations were measured over 6 timepoints collected between 0 and 12 hours of incubation by liquid-chromatography-coupled mass spectrometry (LC–MS); parameters: dose 5 uM, timepoint 0, 1.5, 3, 6, 9, 12 hours; details: actinomyces naeslundii, 5 µM

Row | Bacterial Biotransformation [1] | Bacterial Biotransformation [2] | Bacterial Biotransformation [3] | Bacterial Biotransformation [4] | Bacterial Biotransformation [5] | Bacterial Biotransformation [6] | Bacterial Biotransformation [7] | Bacterial Biotransformation [9] | Bacterial Biotransformation [10] | Bacterial Biotransformation [11] | Bacterial Biotransformation [12] | Bacterial Biotransformation [13] | Bacterial Biotransformation [14] | Bacterial Biotransformation [15] | Bacterial Biotransformation [16] | Bacterial Biotransformation [17] | Bacterial Biotransformation [18] | Bacterial Biotransformation [19] | Bacterial Biotransformation [20] | SMILES | Bacterial Biotransformation [8] | other results
1 | Compound metabolized | Compound metabolized | Compound NOT metabolized | Compound NOT metabolized | Compound metabolized | Compound metabolized | Compound metabolized | Compound metabolized | Compound metabolized | Compound NOT metabolized | Compound NOT metabolized | Compound NOT metabolized | Compound NOT metabolized | Compound NOT metabolized | Compound NOT metabolized | Compound metabolized | Compound NOT metabolized | Compound metabolized | Compound NOT metabolized | C[C@]12C=CC(=O)C=C1CC[C@@H]1[C@@H]2C(=O)C[C@@]2(C)[C@H]1CC[C@]2(O)C(=O)CO [PREDNISONE] | Compound NOT metabolized | Bacterial Biotransformation [21]: Compound NOT metabolized; Bacterial Biotransformation [22]: Compound NOT metabolized; Bacterial Biotransformation [23]: Compound NOT metabolized; Bacterial Biotransformation [24]: Compound NOT metabolized; Bacterial Biotransformation [25]: Compound metabolized; Bacterial Biotransformation [26]: Compound NOT metabolized; Bacterial Biotransformation [27]: Compound NOT metabolized; Bacterial Biotransformation [28]: Compound NOT metabolized; Bacterial Biotransformation [29]: Compound NOT metabolized; Bacterial Biotransformation [30]: Compound NOT metabolized
2 | Compound metabolized | Compound metabolized | Compound NOT metabolized | Compound NOT metabolized | Compound NOT metabolized | Compound metabolized | Compound NOT metabolized | Compound metabolized | Compound metabolized | Compound metabolized | Compound NOT metabolized | Compound NOT metabolized | Compound NOT metabolized | Compound NOT metabolized | Compound NOT metabolized | Compound metabolized | Compound NOT metabolized | Compound metabolized | Compound NOT metabolized | COc1ccc([C@@H]2Sc3ccccc3N(CCN(C)C)C(=O)[C@@H]2OC(C)=O)cc1 [DILTIAZEM] | Compound NOT metabolized | Bacterial Biotransformation [21]: Compound NOT metabolized; Bacterial Biotransformation [22]: Compound NOT metabolized; Bacterial Biotransformation [23]: Compound NOT metabolized; Bacterial Biotransformation [24]: Compound metabolized; Bacterial Biotransformation [25]: Compound metabolized; Bacterial Biotransformation [26]: Compound NOT metabolized; Bacterial Biotransformation [27]: Compound NOT metabolized; Bacterial Biotransformation [28]: Compound NOT metabolized; Bacterial Biotransformation [29]: Compound metabolized; Bacterial Biotransformation [30]: Compound NOT metabolized
3 | Compound metabolized | Compound metabolized | Compound NOT metabolized | Compound NOT metabolized | Compound metabolized | Compound metabolized | Compound metabolized | Compound metabolized | Compound metabolized | Compound NOT metabolized | Compound NOT metabolized | Compound NOT metabolized | Compound NOT metabolized | Compound NOT metabolized | Compound NOT metabolized | Compound metabolized | Compound metabolized | Compound metabolized | Compound NOT metabolized | C[C@]12CCC(=O)C=C1CC[C@@H]1[C@@H]2[C@@H](O)C[C@@]2(C)[C@H]1CC[C@]2(O)C(=O)CO [HYDROCORTISONE] | Compound NOT metabolized | Bacterial Biotransformation [21]: Compound NOT metabolized; Bacterial Biotransformation [22]: Compound NOT metabolized; Bacterial Biotransformation [23]: Compound NOT metabolized; Bacterial Biotransformation [24]: Compound NOT metabolized; Bacterial Biotransformation [25]: Compound metabolized; Bacterial Biotransformation [26]: Compound NOT metabolized; Bacterial Biotransformation [27]: Compound NOT metabolized; Bacterial Biotransformation [28]: Compound NOT metabolized; Bacterial Biotransformation [29]: Compound NOT metabolized; Bacterial Biotransformation [30]: Compound NOT metabolized
